We go through 38 molecules from patent US9029384B2, “Phosphatidylinositol 3-kinase inhibitors” (Gilead Calistoga LLC, priority 2012, dated 2015).

Molecules are shown by their SMILES. pIC50: −log10 of the molar value. A value given as a limit tells only on which side of the number the result lay.

T1 sequence (O00329 whole entry): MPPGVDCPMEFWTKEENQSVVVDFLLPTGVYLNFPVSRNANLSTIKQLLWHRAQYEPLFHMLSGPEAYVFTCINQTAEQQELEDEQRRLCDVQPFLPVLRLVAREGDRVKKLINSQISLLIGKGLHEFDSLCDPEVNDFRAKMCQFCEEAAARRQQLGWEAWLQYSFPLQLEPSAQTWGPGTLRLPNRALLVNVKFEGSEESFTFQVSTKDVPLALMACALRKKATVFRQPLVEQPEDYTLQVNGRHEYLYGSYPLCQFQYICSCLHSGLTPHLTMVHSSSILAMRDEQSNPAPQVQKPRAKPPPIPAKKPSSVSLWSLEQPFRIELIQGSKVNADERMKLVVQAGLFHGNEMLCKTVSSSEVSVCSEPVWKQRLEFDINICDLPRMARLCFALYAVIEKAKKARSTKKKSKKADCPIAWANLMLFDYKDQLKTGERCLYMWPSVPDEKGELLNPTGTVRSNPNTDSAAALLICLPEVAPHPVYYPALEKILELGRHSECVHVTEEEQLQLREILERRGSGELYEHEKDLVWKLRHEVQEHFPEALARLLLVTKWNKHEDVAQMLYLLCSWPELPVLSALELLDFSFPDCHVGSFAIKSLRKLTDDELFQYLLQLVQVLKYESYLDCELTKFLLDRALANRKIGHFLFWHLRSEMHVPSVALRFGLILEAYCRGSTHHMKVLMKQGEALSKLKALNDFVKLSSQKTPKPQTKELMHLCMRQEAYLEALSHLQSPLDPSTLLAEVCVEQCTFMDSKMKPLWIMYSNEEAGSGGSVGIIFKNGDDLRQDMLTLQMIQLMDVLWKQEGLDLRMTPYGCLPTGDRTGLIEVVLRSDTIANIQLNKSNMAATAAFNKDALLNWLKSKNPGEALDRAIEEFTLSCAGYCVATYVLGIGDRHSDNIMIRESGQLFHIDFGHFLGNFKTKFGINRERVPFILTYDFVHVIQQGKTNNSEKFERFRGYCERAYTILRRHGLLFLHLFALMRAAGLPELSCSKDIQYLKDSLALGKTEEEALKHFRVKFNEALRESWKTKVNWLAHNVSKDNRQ
T1 sequence (P27986 whole entry partner): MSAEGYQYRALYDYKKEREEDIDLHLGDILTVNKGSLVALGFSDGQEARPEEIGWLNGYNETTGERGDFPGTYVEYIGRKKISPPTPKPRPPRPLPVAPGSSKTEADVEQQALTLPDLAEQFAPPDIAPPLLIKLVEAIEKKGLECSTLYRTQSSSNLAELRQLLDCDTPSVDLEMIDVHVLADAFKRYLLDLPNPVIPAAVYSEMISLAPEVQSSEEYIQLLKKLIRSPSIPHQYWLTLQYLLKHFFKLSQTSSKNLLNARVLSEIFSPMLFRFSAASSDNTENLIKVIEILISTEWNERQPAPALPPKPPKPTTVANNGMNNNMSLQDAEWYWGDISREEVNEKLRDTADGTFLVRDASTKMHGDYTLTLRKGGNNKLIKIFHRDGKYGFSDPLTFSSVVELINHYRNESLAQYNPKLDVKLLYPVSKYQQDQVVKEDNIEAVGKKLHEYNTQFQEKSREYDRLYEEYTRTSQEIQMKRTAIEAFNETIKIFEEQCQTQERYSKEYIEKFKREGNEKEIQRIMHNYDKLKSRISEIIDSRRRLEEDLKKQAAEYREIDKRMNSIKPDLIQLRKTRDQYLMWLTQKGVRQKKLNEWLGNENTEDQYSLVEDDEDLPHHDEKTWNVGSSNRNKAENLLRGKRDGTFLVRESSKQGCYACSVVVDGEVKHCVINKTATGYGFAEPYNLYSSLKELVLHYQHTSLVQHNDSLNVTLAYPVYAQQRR

This experiment concerns the target T1, PI3Kδ (Homo sapiens, UniProt O00329).
T1 construct: made in house
In words: Enzymatic activity of PI3K isoforms, TR-FRET assay (PIP3 formation). The experiment is classed as biochemical. The settings on record: PI3Kδ; TR-FRET, 2×Km ATP, 10 μM PIP2; read-out: IC50. An excerpt:
Enzymatic Activity of PI3K Isoforms
The TR-FRET assay was used to monitor formation of the product 3,4,5-inositol triphosphate molecule (PIP3) as it competed with fluorescently labeled PIP3 for binding to the GRP-1 pleckstrin homology domain protein. An increase in […] product results in a decrease in TR-FRET signal as the labeled fluorophore is displaced from the GRP-1 protein binding site.
Class I PI3K isoforms were expressed and purified as heterodimeric recombinant proteins. All assay reagents and buffers for the TR-FRET assay were purchased from Millipore. […] After an assay reaction time of 30 minutes at 25° C., reactions were terminated with a final concentration of 10 mM EDTA, 10 nM labeled-PIP3, and 35 nM Europium labeled GRP-1 detector protein before reading TR-FRET on an Envision plate reader (Ex: 340 nm; Em: 615/665 nm; 100 μs delay and 500 μs read window).
Data are normalized based on a positive (1 uM wortmanin) and negative (DMSO) controls. The α, β, δ, and γ IC50 values were calculated from the fit of the dose-response curves to a four-parameter equation. IC50 are reported in units of nM.
IC50 values were obtained for all PI3K isoforms (α, β, δ, and γ), and Table 2 summarizes the IC50 data collected for PI3Kδ in this Example B1.
(In general: TR-FRET usually uses a lanthanide donor and a delayed reading to cut background.)
Turning to `CC(Nc1nc(N)nc(N)c1C#N)c1nc2cccc(F)c2c(=O)n1-c1cc(C(F)(F)F)cc(C(F)(F)F)c1` (single isomer, unassigned) [Compound 88a], the pIC50 was less than 7.30.
For `CC(Nc1nc(N)nc(N)c1C#N)c1nc2cccc(F)c2c(=O)n1-c1cc(C(F)F)cc(C(F)F)c1` (single isomer, unassigned) [Compound 136a] the value was less than 7.30; for `N#Cc1c(N)nc(N)nc1NC(CC(F)(F)F)c1nc2ccc(F)cc2c(=O)n1-c1ccccc1` (single isomer, unassigned) [Compound 132a], less than 7.30.
For `CC(Nc1nc(N)nc(N)c1C#N)c1nc2cccc(C#N)c2c(=O)n1-c1cc(F)cc(C#N)c1` (single isomer, unassigned) [Compound 113a] the value was less than 7.30.
On to `CC(Nc1nc(N)nc(N)c1C#N)c1nc2cc(F)c(F)cc2c(=O)n1-c1cc(F)cc(F)c1` (single isomer, unassigned) [Compound 79a], for which the negative logarithm of the IC50 (pIC50) is 7.30 to 8.00.
With `Cc1c(-n2c(C(C)Nc3nc(N)nc(N)c3C#N)nc3cccc(Cl)c3c2=O)ccc(F)c1F` (single isomer, unassigned) [Compound 204a-2], the pIC50 is 8.00 to 9.00.
For `CC(Nc1nc(N)nc(N)c1C#N)c1nc2cccc(Cl)c2c(=O)n1-c1cc(C#N)cc(C#N)c1` (single isomer, unassigned) [Compound 87a], the negative logarithm of the IC50 (pIC50) is less than 7.30.
In the case of `Cc1cccc2c(=O)n(-c3cccc(C(F)(F)F)c3)c(C(C)Nc3nc(N)nc(N)c3C#N)nc12` (single isomer, unassigned) [Compound 39a], the pIC50 was 7.30 to 8.00.
Consider `CC(Nc1nc(N)nc(N)c1C#N)c1nc2c(C(F)(F)F)cccc2c(=O)n1-c1cc(F)cc(F)c1` (single isomer, unassigned) [Compound 34a], for which the negative-log IC50 (pIC50) is less than 7.30.
As to `CCc1cccc2c(=O)n(-c3cc(F)cc(F)c3)c(C(C)Nc3nc(N)nc(N)c3C#N)nc12` (single isomer, unassigned) [Compound 103a], the negative-log IC50 (pIC50) is 7.30 to 8.00.
Next, `CC(Nc1nc(N)nc(N)c1S(C)(=O)=O)c1nc2cccc(Cl)c2c(=O)n1-c1cc(F)cc(F)c1` (single isomer, unassigned) [Compound 94a]: less than 7.30; `COc1cc(F)cc(-n2c(C(C)Nc3nc(N)nc(N)c3C#N)nc3cccc(Cl)c3c2=O)c1C` (single isomer, unassigned) [Compound 110a-1]: less than 7.30; `CC(Nc1nc(N)nc(N)c1C#N)c1nc2cccc(Br)c2c(=O)n1-c1cccc(F)c1` (single isomer, unassigned) [Compound 130a]: greater than 9.00.
`CC(Nc1nc(N)nc(N)c1C#N)c1nc2c(C(F)F)cccc2c(=O)n1-c1cc(F)cc(F)c1` (single isomer, unassigned) [Compound 57a]: the pIC50 is 7.30 to 8.00.
As for `CCC(Nc1nc(N)nc(N)c1C#N)c1nc2cccc(F)c2c(=O)n1-c1cc(F)cc(C(F)F)c1` (single isomer, unassigned) [Compound 65a], the negative-log IC50 (pIC50) is 7.30 to 8.00.
Take `CC(Nc1nc(N)nc(N)c1C#N)c1nc2cccc(C(=O)O)c2c(=O)n1-c1ccccc1` (single isomer, unassigned) [Compound 162a, 2-(1-((2,6-diamino-5-cyanopyrimidin-4-yl)amino)ethyl)-4-oxo-3-phenyl-3,4-dihydroquinazoline-5-carboxylic acid]: the pIC50 was less than 7.30.
`CCC(Nc1nc(N)nc(N)c1C#N)c1nc2ccc(Cl)c(F)c2c(=O)n1-c1cc(F)cc(F)c1` (single isomer, unassigned) [Compound 86a]: the negative-log IC50 (pIC50) was less than 7.30.
`N#Cc1c(N)nc(N)nc1NC(CC(F)(F)F)c1nc2ccc(F)cc2c(=O)n1-c1cc(F)cc(F)c1` (single isomer, unassigned) [Compound 133a]: the pIC50 was less than 7.30.
In the case of `CCC(Nc1nc(N)nc(N)c1C#N)c1nc2c(F)cc(F)cc2c(=O)n1-c1cc(F)cc(F)c1` (single isomer, unassigned) [Compound 69a], the negative-log IC50 (pIC50) is 7.30 to 8.00.
For the molecule `CCC(Nc1nc(N)nc(N)c1Cl)c1nc2cccc(F)c2c(=O)n1-c1cc(F)cc(F)c1` (single isomer, unassigned) [Compound 105a], the pIC50 was less than 7.30.
With `N#Cc1c(N)nc(N)nc1NC(CC(F)(F)F)c1nc2cccc(Cl)c2c(=O)n1-c1cc(F)cc(F)c1` (single isomer, unassigned) [Compound 165a], the negative-log IC50 (pIC50) was less than 7.30.
For the molecule `Cc1c(-n2c(C(C)Nc3nc(N)nc(N)c3C#N)nc3cccc(Cl)c3c2=O)ccc(F)c1F` (single isomer, unassigned) [Compound 204a-1], the pIC50 was 7.30 to 8.00.
Consider `CC(Nc1nc(N)nc(N)c1C#N)c1nc2cccc(F)c2c(=O)n1-c1cc(C(F)F)cc(C(F)F)c1` (single isomer, unassigned) [Compound 118a], for which the pIC50 was less than 7.30.
With `N#Cc1c(N)nc(N)nc1NCc1nc2cc(F)c(F)cc2c(=O)n1-c1cc(F)cc(F)c1` [Compound 80, 2,4-diamino-6-((3-(3,5-difluorophenyl)-6,7-difluoro-4-oxo-3,4-dihydroquinazolin-2-yl)methylamino)pyrimidine-5-carbonitrile], the pIC50 was less than 7.30.
Next, `N#Cc1c(N)nc(N)nc1NC(CC(F)(F)F)c1nc2cccc(F)c2c(=O)n1-c1cc(F)cc(F)c1` (single isomer, unassigned) [Compound 166a]: less than 7.30; `COc1cccc2c(=O)n(-c3cc(F)cc(F)c3)c(C(C)Nc3nc(N)nc(N)c3C#N)nc12` (single isomer, unassigned) [Compound 68a]: less than 7.30.
For the molecule `CC(Nc1nc(N)nc(N)c1C#N)c1nc2ccc(C#N)cc2c(=O)n1-c1ccccc1` (single isomer, unassigned) [Compound 159a], the pIC50 was less than 7.30.
Consider `CCC(Nc1nc(N)nc(N)c1C#N)c1nc2cccc(F)c2c(=O)n1-c1cccc(C(F)(F)F)c1` (single isomer, unassigned) [Compound 46a], for which the negative-log IC50 (pIC50) is 7.30 to 8.00.
With `CC(Nc1nc(N)nc(N)c1C#N)c1nc2cccc(F)c2c(=O)n1-c1cc(Cl)cc(C(F)F)c1` (single isomer, unassigned) [Compound 114a], the negative logarithm of the IC50 (pIC50) was less than 7.30.
Consider `CC(Nc1nc(N)nc(N)c1C#N)c1nc2cccc(F)c2c(=O)n1-c1cc(F)cc(C#N)c1` (single isomer, unassigned) [Compound 32a], for which the pIC50 was 7.30 to 8.00.
Turning to `Cc1ccc(F)c2c(=O)n(-c3cc(F)cc(C#N)c3)c(C(C)Nc3nc(N)nc(N)c3C#N)nc12` (single isomer, unassigned) [Compound 83a], the negative logarithm of the IC50 (pIC50) is 7.30 to 8.00.
With `COc1cc(F)cc(-n2c(C(C)Nc3nc(N)nc(N)c3C#N)nc3cccc(Cl)c3c2=O)c1C` (single isomer, unassigned) [Compound 110a-2], the pIC50 is 8.00 to 9.00.
As to `CCC(Nc1nc(N)nc(N)c1C#N)c1nc2ccc(F)c(F)c2c(=O)n1-c1cc(F)cc(F)c1` (single isomer, unassigned) [Compound 30a], the negative logarithm of the IC50 (pIC50) was 7.30 to 8.00.
Turning to `COc1cccc(-n2c(C(C)Nc3nc(N)nc(N)c3C#N)nc3cccc(Cl)c3c2=O)c1C` (single isomer, unassigned) [Compound 109a-1], the negative-log IC50 (pIC50) was 7.30 to 8.00.
As for `N#Cc1cccc(-n2c(CNc3nc(N)nc(N)c3C#N)nc3c(Cl)cccc3c2=O)c1` [Compound 84, 2,4-diamino-6-((8-chloro-3-(3-cyanophenyl)-4-oxo-3,4-dihydroquinazolin-2-yl)methylamino)pyrimidine-5-carbonitrile], the pIC50 is less than 7.30.
`CC(Nc1nc(N)nc(N)c1C#N)c1nc2cccc(F)c2c(=O)n1-c1cc(F)cc(C(F)(F)F)c1` (single isomer, unassigned) [Compound 33a]: the pIC50 was less than 7.30.
Consider `CC(Nc1nc(N)nc(N)c1C#N)c1nc2cccc(C#N)c2c(=O)n1-c1cc(F)cc(C(F)F)c1` (single isomer, unassigned) [Compound 138a], for which the negative logarithm of the IC50 (pIC50) was 7.30 to 8.00.
On to `CC(Nc1nc(N)nc(N)c1C#N)c1nc2ccc(Cl)c(F)c2c(=O)n1-c1cc(F)cc(F)c1` (single isomer, unassigned) [Compound 85a], for which the negative-log IC50 (pIC50) was less than 7.30.

In general, pIC50 refers to the negative decadic logarithm of the IC50, by convention in mol/L.
